# Experimental data from ChEMBL document CHEMBL4229455, “Synthesis and anticancer activity of novel bisindolylhydroxymaleimide derivatives with potent GSK-3 kinase inhibition” (Bioorg Med Chem, 2018).
# Key:
# Assay type in all cases: functional
# OVCAR-4 [1] = test: Cytotoxicity against human OVCAR4 cells after 48 hrs by SRB assay; details: OVCAR-4, 48 h
# SF-295 = test: Cytotoxicity against human SF295 cells assessed as cell growth at 100 uM after 48 hrs by SRB assay relative to control; details: SF-295, 48 h, read-out: Activity
# OVCAR-4 [2] = test: Cytotoxicity against human OVCAR4 cells assessed as cell growth at 1 uM after 48 hrs by SRB assay relative to control; details: OVCAR-4, 48 h, read-out: Activity
# SK-OV-3 = test: Cytotoxicity against human SKOV3 cells assessed as cell growth at 100 uM after 48 hrs by SRB assay relative to control; details: SK-OV-3, 48 h, read-out: Activity
# BT-549 = test: Cytotoxicity against human BT549 cells assessed as cell growth at 0.01 uM after 48 hrs by SRB assay relative to control; details: BT-549, 48 h, read-out: Activity
# MDA-MB-468 = test: Cytotoxicity against human MDA-MB-468 cells after 48 hrs by SRB assay; details: MDA-MB-468, 48 h
# EKVX [3] = test: Cytotoxicity against human EKVX cells assessed as cell growth at 0.01 uM after 48 hrs by SRB assay relative to control; details: read-out: Activity
# RXF 393 = test: Cytotoxicity against human RXF393 cells assessed as cell growth at 0.01 uM after 48 hrs by SRB assay relative to control; details: RXF 393, 48 h, read-out: Activity
# OVCAR-4 [4] = test: Cytotoxicity against human OVCAR4 cells assessed as cell growth at 100 uM after 48 hrs by SRB assay relative to control; details: OVCAR-4, 48 h, read-out: Activity
# EKVX [5] = test: Cytotoxicity against human EKVX cells assessed as cell growth at 0.1 uM after 48 hrs by SRB assay relative to control; details: read-out: Activity
# SR = test: Cytotoxicity against human SR cells assessed as cell growth at 100 uM after 48 hrs by SRB assay relative to control; details: read-out: Activity
# ACHN = test: Cytotoxicity against human ACHN cells assessed as cell growth at 0.01 uM after 48 hrs by SRB assay relative to control; details: read-out: Activity
# OVCAR-4 [6] = test: Cytotoxicity against human OVCAR4 cells assessed as cell growth at 0.1 uM after 48 hrs by SRB assay relative to control; details: OVCAR-4, 48 h, read-out: Activity
# OVCAR-5 = test: Cytotoxicity against human OVCAR5 cells assessed as cell growth at 0.1 uM after 48 hrs by SRB assay relative to control; details: OVCAR-5, 48 h, read-out: Activity
# EKVX [7] = test: Cytotoxicity against human EKVX cells assessed as cell growth at 1 uM after 48 hrs by SRB assay relative to control; details: read-out: Activity
# OVCAR-4 [8] = test: Cytotoxicity against human OVCAR4 cells assessed as cell growth at 0.01 uM after 48 hrs by SRB assay relative to control; details: OVCAR-4, 48 h, read-out: Activity
# T47D = test: Cytotoxicity against human T47D cells after 48 hrs by SRB assay
# EKVX [9] = test: Cytotoxicity against human EKVX cells assessed as cell growth at 100 uM after 48 hrs by SRB assay relative to control; details: read-out: Activity
# EKVX [10] = test: Cytotoxicity against human EKVX cells after 48 hrs by SRB assay
# U-251 [11] = test: Cytotoxicity against human U251 cells assessed as cell growth at 0.01 uM after 48 hrs by SRB assay relative to control; details: U-251, 48 h, read-out: Activity
# U-251 [12] = test: Cytotoxicity against human U251 cells assessed as cell growth at 0.1 uM after 48 hrs by SRB assay relative to control; details: U-251, 48 h, read-out: Activity
# NCI-H322M [13] = test: Cytotoxicity against human NCI-H322M cells assessed as cell growth at 0.1 uM after 48 hrs by SRB assay relative to control; details: read-out: Activity
# U-251 [14] = test: Cytotoxicity against human U251 cells after 48 hrs by SRB assay; details: U-251, 48 h
# NCI-H322M [15] = test: Cytotoxicity against human NCI-H322M cells assessed as cell growth at 0.01 uM after 48 hrs by SRB assay relative to control; details: read-out: Activity
# U-251 [16] = test: Cytotoxicity against human U251 cells assessed as cell growth at 100 uM after 48 hrs by SRB assay relative to control; details: U-251, 48 h, read-out: Activity
# U-251 [17] = test: Cytotoxicity against human U251 cells assessed as cell growth at 1 uM after 48 hrs by SRB assay relative to control; details: U-251, 48 h, read-out: Activity
# NCI-H322M [18] = test: Cytotoxicity against human NCI-H322M cells assessed as cell growth at 100 uM after 48 hrs by SRB assay relative to control; details: read-out: Activity
# NCI-H322M [19] = test: Cytotoxicity against human NCI-H322M cells after 48 hrs by SRB assay
# NCI-H322M [20] = test: Cytotoxicity against human NCI-H322M cells assessed as cell growth at 1 uM after 48 hrs by SRB assay relative to control; details: read-out: Activity
# [21] = read-out: LC50 (the source's name)
compound,measurement,setting,value
Cn1cc(C2=C(c3cn(C)c4ncccc34)C(=O)NC2=O)c2ccccc21,GI50,OVCAR-4 [1],4.86 µM
same,TGI,OVCAR-4 [1],83.1 µM
same,CC50,OVCAR-4 [1]; [21],> 100 µM
same,growth at 100 µM,SF-295,-20%
same,growth at 1 µM,OVCAR-4 [2],85%
same,growth at 100 µM,SK-OV-3,-7%
same,growth at 0.01 µM,BT-549,110%
same,GI50,MDA-MB-468,2.22 µM
same,TGI,MDA-MB-468,9.46 µM
same,growth at 0.01 µM,EKVX [3],91%
same,growth at 0.01 µM,RXF 393,98%
same,growth at 100 µM,OVCAR-4 [4],-3%
same,growth at 0.1 µM,EKVX [5],84%
same,growth at 100 µM,SR,-21%
same,growth at 0.01 µM,ACHN,100%
same,growth at 0.1 µM,OVCAR-4 [6],87%
same,growth at 0.1 µM,OVCAR-5,102%
same,growth at 1 µM,EKVX [7],65%
same,growth at 0.01 µM,OVCAR-4 [8],102%
same,GI50,T47D,2.37 µM
same,TGI,T47D,30.3 µM
same,growth at 100 µM,EKVX [9],-42%
same,GI50,EKVX [10],1.83 µM
same,TGI,EKVX [10],15.1 µM
same,CC50,EKVX [10]; [21],> 100 µM
N#CCCCCCn1cc(C2=C(c3cn(CCCCCC#N)c4ccccc34)C(=O)N(O)C2=O)c2ccccc21,growth at 0.01 µM,U-251 [11],102%
same,growth at 0.1 µM,U-251 [12],100%
same,growth at 100 µM,SF-295,-37%
same,growth at 0.1 µM,NCI-H322M [13],99%
same,GI50,U-251 [14],4.65 µM
same,TGI,U-251 [14],> 100 µM
same,CC50,U-251 [14]; [21],> 100 µM
same,growth at 0.01 µM,NCI-H322M [15],98%
same,growth at 0.01 µM,BT-549,101%
same,GI50,MDA-MB-468,3.47 µM
same,LC50,MDA-MB-468,> 100 µM
same,TGI,MDA-MB-468,13.9 µM
same,growth at 100 µM,U-251 [16],5%
same,growth at 0.01 µM,RXF 393,96%
same,growth at 1 µM,U-251 [17],100%
same,growth at 100 µM,NCI-H322M [18],-4%
same,growth at 100 µM,SR,-14%
same,growth at 0.01 µM,ACHN,99%
same,growth at 0.1 µM,OVCAR-5,89%
same,GI50,NCI-H322M [19],8.53 µM
same,TGI,NCI-H322M [19],84.6 µM
same,CC50,NCI-H322M [19]; [21],> 100 µM
same,GI50,T47D,4.15 µM
same,LC50,T47D,> 100 µM
same,TGI,T47D,60.5 µM
same,growth at 1 µM,NCI-H322M [20],100%
